From PubChem BioAssay AID1963959 (Molecular Pharmacology Branch, DTP, NCI, 2024)
pIC50: −log10 of the molar value.

Test system: T-47D spheroids with HUVEC/MSC, viability
Experiment: Anticancer human tumor T-47D cell line growth inhibition [PI3K];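 also: spheroids exposed to agents for seven days before reading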;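 as to viability, T/C: percent of DMSO vehicle control luminescence so 100% = untreated growth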
Conditions: for viability, T/C: stronger effect = lower value
Outline: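 Tumor cells grown as multi-cell spheroids with HUVEC endothelial cells and MSC fibroblast-like stroma were treated with targeted agents combined with inavolisib, alpelisib, duvelisib or copanlisib. Doses fell in half-log steps from near clinical Cmax, else from 10 microM. Viability was measured.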

[1] = curve of first compound, second compound 0.0316 µM
[2] = curve of first compound, second compound 0.1 µM
[3] = curve of first compound, second compound 0.316 µM
[4] = curve of first compound, second compound 1 µM
[5] = curve of first compound, second compound 3.16 µM
[6] = curve of first compound, second compound 10 µM
[7] = second compound 0.0316 µM, first compound 0.0316 µM
[8] = second compound 0.0316 µM, first compound 0.1 µM
[9] = second compound 0.0316 µM, first compound 0.316 µM
[10] = second compound 0.0316 µM, first compound 1 µM
[11] = second compound 0.1 µM, first compound 0.0316 µM
[12] = second compound 0.1 µM, first compound 0.1 µM
[13] = second compound 0.1 µM, first compound 0.316 µM
[14] = second compound 0.1 µM, first compound 1 µM
[15] = second compound 0.316 µM, first compound 0.0316 µM
[16] = second compound 0.316 µM, first compound 0.1 µM
[17] = second compound 0.316 µM, first compound 0.316 µM
[18] = second compound 0.316 µM, first compound 1 µM
[19] = second compound 1 µM, first compound 0.0316 µM
[20] = second compound 1 µM, first compound 0.1 µM
[21] = second compound 1 µM, first compound 0.316 µM
[22] = second compound 1 µM, first compound 1 µM
[23] = second compound 3.16 µM, first compound 0.0316 µM
[24] = second compound 3.16 µM, first compound 0.1 µM
[25] = second compound 10 µM, first compound 0.0316 µM
[26] = second compound 10 µM, first compound 0.1 µM
[27] = second compound 0.0316 µM, first compound 0.00316 µM
[28] = second compound 0.0316 µM, first compound 0.01 µM
[29] = second compound 0.1 µM, first compound 0.00316 µM
[30] = second compound 0.1 µM, first compound 0.01 µM
[31] = second compound 0.316 µM, first compound 0.00316 µM
[32] = second compound 0.316 µM, first compound 0.01 µM
[33] = second compound 1 µM, first compound 0.00316 µM
[34] = second compound 1 µM, first compound 0.01 µM

SMILES: Cn1ncc(Cl)c1-c1cc(C(=O)NC(CN)Cc2cccc(F)c2)sc1Cl (stereo not drawn) + CC(Nc1ncnc2nc[nH]c12)c1cc2cccc(Cl)c2c(=O)n1-c1ccccc1
- pIC50 [1]: < 5.00
- pIC50 [2]: < 5.00
- pIC50 [3]: < 5.00
- pIC50 [4]: < 5.00
- pIC50 [5]: < 5.00
- pIC50 [6]: < 5.00
- viability, T/C [7]: 101%
- viability, T/C [8]: 101%
- viability, T/C [9]: 84.2%
- viability, T/C [10]: 76.6%
- viability, T/C (second compound 0.0316 µM, first compound 3.16 µM): 64.2%
- viability, T/C (second compound 0.0316 µM, first compound 10 µM): 66.6%
- viability, T/C [11]: 100%
- viability, T/C [12]: 79.2%
- viability, T/C [13]: 80.2%
- viability, T/C [14]: 76.9%
- viability, T/C (second compound 0.1 µM, first compound 3.16 µM): 70.8%
- viability, T/C (second compound 0.1 µM, first compound 10 µM): 66.6%
- viability, T/C [15]: 104%
- viability, T/C [16]: 89.1%
- viability, T/C [17]: 91.5%
- viability, T/C [18]: 68.1%
- viability, T/C (second compound 0.316 µM, first compound 3.16 µM): 72.4%
- viability, T/C (second compound 0.316 µM, first compound 10 µM): 68.3%
- viability, T/C [19]: 103%
- viability, T/C [20]: 94.7%
- viability, T/C [21]: 81.2%
- viability, T/C [22]: 67.1%
- viability, T/C (second compound 1 µM, first compound 3.16 µM): 58.7%
- viability, T/C (second compound 1 µM, first compound 10 µM): 74.1%
- viability, T/C [23]: 82.9%
- viability, T/C [24]: 99.3%
- viability, T/C (second compound 3.16 µM, first compound 0.316 µM): 79.9%
- viability, T/C (second compound 3.16 µM, first compound 1 µM): 57.6%
- viability, T/C (second compound 3.16 µM, first compound 3.16 µM): 72.8%
- viability, T/C (second compound 3.16 µM, first compound 10 µM): 69.1%
- viability, T/C [25]: 97.8%
- viability, T/C [26]: 92.2%
- viability, T/C (second compound 10 µM, first compound 0.316 µM): 77.5%
- viability, T/C (second compound 10 µM, first compound 1 µM): 68.4%
- viability, T/C (second compound 10 µM, first compound 3.16 µM): 66.9%
- viability, T/C (second compound 10 µM, first compound 10 µM): 71.4%

SMILES: CC(Cn1ccc(-c2ccc(C#N)c(Cl)c2)n1)NC(=O)c1cc(C(C)O)[nH]n1 (stereo not drawn)
- viability, T/C (compound 0.0316 µM): 100% [middle of 4 runs]
- viability, T/C (compound 0.1 µM): 107% [middle of 4 runs]
- viability, T/C (compound 0.316 µM): 92.3% [middle of 4 runs]
- viability, T/C (compound 1 µM): 95.2% [middle of 4 runs]
- viability, T/C (compound 3.16 µM): 89.8% [middle of 4 runs]
- viability, T/C (compound 10 µM): 58.7% [middle of 4 runs]
- pIC50 (curve of compound): < 5.00

SMILES: CC(C)n1nc(-c2ccc3oc(N)nc3c2)c2c(N)ncnc21 + CC(Nc1ncnc2nc[nH]c12)c1cc2cccc(Cl)c2c(=O)n1-c1ccccc1
- pIC50 [1]: 7.15
- pIC50 [2]: 7.08
- pIC50 [3]: 7.21
- pIC50 [4]: 7.14
- pIC50 [5]: 7.19
- pIC50 [6]: 7.29
- viability, T/C (second compound 0.0316 µM, first compound 0.000316 µM): 116%
- viability, T/C (second compound 0.0316 µM, first compound 0.001 µM): 103%
- viability, T/C [27]: 98.8%
- viability, T/C [28]: 97.3%
- viability, T/C [7]: 90%
- viability, T/C [8]: 33.1%
- viability, T/C (second compound 0.1 µM, first compound 0.000316 µM): 92.2%
- viability, T/C (second compound 0.1 µM, first compound 0.001 µM): 76.5%
- viability, T/C [29]: 87.8%
- viability, T/C [30]: 92.8%
- viability, T/C [11]: 79.2%
- viability, T/C [12]: 44.6%
- viability, T/C (second compound 0.316 µM, first compound 0.000316 µM): 93.5%
- viability, T/C (second compound 0.316 µM, first compound 0.001 µM): 107%
- viability, T/C [31]: 91.3%
- viability, T/C [32]: 104%
- viability, T/C [15]: 67.6%
- viability, T/C [16]: 37.3%
- viability, T/C (second compound 1 µM, first compound 0.000316 µM): 86.4%
- viability, T/C (second compound 1 µM, first compound 0.001 µM): 107%
- viability, T/C [33]: 78.4%
- viability, T/C [34]: 90%
- viability, T/C [19]: 83.7%
- viability, T/C [20]: 36.6%
- viability, T/C (second compound 3.16 µM, first compound 0.000316 µM): 99.4%
- viability, T/C (second compound 3.16 µM, first compound 0.001 µM): 94.2%
- viability, T/C (second compound 3.16 µM, first compound 0.00316 µM): 86.9%
- viability, T/C (second compound 3.16 µM, first compound 0.01 µM): 76.2%
- viability, T/C [23]: 82.2%
- viability, T/C [24]: 33.1%
- viability, T/C (second compound 10 µM, first compound 0.000316 µM): 95%
- viability, T/C (second compound 10 µM, first compound 0.001 µM): 75.1%
- viability, T/C (second compound 10 µM, first compound 0.00316 µM): 80.5%
- viability, T/C (second compound 10 µM, first compound 0.01 µM): 75.6%
- viability, T/C [25]: 61.4%
- viability, T/C [26]: 35.1%

SMILES: CCN1CCN(Cc2ccc(Nc3ncc(F)c(-c4cc(F)c5nc(C)n(C(C)C)c5c4)n3)nc2)CC1 + CC(Nc1ccc2c(c1)OCCn1cc(N3C(=O)OCC3C(F)F)nc1-2)C(N)=O
- pIC50 (curve of first compound, second compound 0.00316 µM): < 6.00
- pIC50 (curve of first compound, second compound 0.01 µM): < 6.00
- pIC50 [1]: < 6.00
- pIC50 [2]: < 6.00
- pIC50 [3]: 7.76
- pIC50 [4]: > 8.50
- viability, T/C (second compound 0.00316 µM, first compound 0.00316 µM): 107%
- viability, T/C (second compound 0.00316 µM, first compound 0.01 µM): 101%
- viability, T/C (second compound 0.00316 µM, first compound 0.0316 µM): 91%
- viability, T/C (second compound 0.00316 µM, first compound 0.1 µM): 95.5%
- viability, T/C (second compound 0.00316 µM, first compound 0.316 µM): 91.6%
- viability, T/C (second compound 0.00316 µM, first compound 1 µM): 91.2%
- viability, T/C (second compound 0.01 µM, first compound 0.00316 µM): 93%
- viability, T/C (second compound 0.01 µM, first compound 0.01 µM): 101%
- viability, T/C (second compound 0.01 µM, first compound 0.0316 µM): 94.4%
- viability, T/C (second compound 0.01 µM, first compound 0.1 µM): 86.2%
- viability, T/C (second compound 0.01 µM, first compound 0.316 µM): 76.5%
- viability, T/C (second compound 0.01 µM, first compound 1 µM): 82.5%
- viability, T/C [27]: 88.2%
- viability, T/C [28]: 98%
- viability, T/C [7]: 81.8%
- viability, T/C [8]: 90%
- viability, T/C [9]: 72.6%
- viability, T/C [10]: 91%
- viability, T/C [29]: 83.3%
- viability, T/C [30]: 90.6%
- viability, T/C [11]: 71.5%
- viability, T/C [12]: 58.9%
- viability, T/C [13]: 56.5%
- viability, T/C [14]: 73.8%
- viability, T/C [31]: 58.2%
- viability, T/C [32]: 49.9%
- viability, T/C [15]: 51.2%
- viability, T/C [16]: 48.8%
- viability, T/C [17]: 47%
- viability, T/C [18]: 49.1%
- viability, T/C [33]: 49.7%
- viability, T/C [34]: 36.8%
- viability, T/C [19]: 35.7%
- viability, T/C [20]: 32.5%
- viability, T/C [21]: 37.2%
- viability, T/C [22]: 44.8%
